Reference: ChEMBL document CHEMBL1138641, “2-(4-Methoxyphenoxy)-5-nitro-N-(4-sulfamoylphenyl)benzamide activates Kir6.2/SUR1 K(ATP) channels” (Bioorg Med Chem Lett, 2004)

Key:
[1] = inhibitory concentration required for repolarization of beta cell membrane potential in presence of 10 mM glucose; assay type: functional, Homo sapiens
Beta-TC6 [2] = assay: Concentration required for inhibition of glucose stimulated insulin release from beta TC6 cells; assay type: functional, cell-based, Mus musculus
Beta-TC6 [3] = assay: Percent efficacy for inhibition of glucose stimulated insulin release from beta TC6 cells; assay type: functional, Mus musculus
HEK293 = assay: Potency by repolarisation of tolbutamide-depolarised membrane potential in HEK 293 cells; conditions: Homo sapiens
[4] = Mus musculus, Beta-TC6, read-out: IC50

| Compound | IC50 [1] | IC50 (Beta-TC6 [2]; beta-tc6) | IC50 ([1]; Homo sapiens, read-out: IC50) | IC50 (Beta-TC6 [2]; [4]) | Efficacy (Beta-TC6 [3]) | IC50 (HEK293) |
| --- | --- | --- | --- | --- | --- | --- |
| COc1ccc(NC(=O)c2cc(N)ccc2Oc2ccc(OC)cc2)cc1 | No significant activity | No significant activity |  |  |  |  |
| COc1ccc(Oc2ccc([N+](=O)[O-])cc2C(=O)N(C)c2ccc(Cl)cc2)cc1 |  |  | 10.1 µM | 25.7 µM | 33% |  |
| COc1ccc(NC(=O)c2cc(C#N)ccc2Oc2ccc(OC)cc2)cc1 |  |  | 2.5 µM | 48.5 µM | 17% |  |
| COc1ccc(Nc2ccc([N+](=O)[O-])cc2C(=O)Nc2ccc(S(N)(=O)=O)cc2)cc1 | No significant activity |  |  | 26.6 µM | 1% |  |
| CC1=Nc2ccc(Cl)cc2S(=O)(=O)N1 [DIAZOXIDE] |  |  | 13.7 µM | 23 µM | 25% | 33 µM |
| COc1ccc(NC(=O)c2ccccc2Oc2ccccc2)cc1 | No significant activity | No significant activity |  |  |  |  |

Now from value to compound, other results behind:

| IC50 [1] | IC50 (Beta-TC6 [2]; beta-tc6) | IC50 ([1]; Homo sapiens, read-out: IC50) | IC50 (Beta-TC6 [2]; [4]) | Compound | Efficacy (Beta-TC6 [3]) | IC50 (HEK293) |
| --- | --- | --- | --- | --- | --- | --- |
|  |  | 9.9 µM | 20.5 µM | COc1ccc(Oc2ccc([N+](=O)[O-])cc2C(=O)Nc2cccc(S(N)(=O)=O)c2)cc1 | 31% |  |
|  |  | 3.4 µM | 1.6 µM | COc1ccc(NC(=O)c2cc([N+](=O)[O-])ccc2Oc2ccc(OC)cc2)cc1 | 73% |  |
|  |  | 8.3 µM | 10.4 µM | CCN(C(=O)c1cc([N+](=O)[O-])ccc1Oc1ccc(OC)cc1)c1ccc(Cl)cc1 | 56% |  |
|  |  | 7.2 µM | 5.67 µM | COc1ccc(Oc2ccc([N+](=O)[O-])cc2C(=O)Nc2ccc(F)cc2)cc1 | 52% |  |
|  |  | 0.6 µM | 0.25 µM | CC1(NC2=NS(=O)(=O)c3sc(Cl)cc3N2)CC1 [TIFENAZOXIDE] | 73% |  |
| No significant activity |  |  | 10.4 µM | COc1ccc(Oc2ccc([N+](=O)[O-])cc2C(=O)Nc2ccccc2S(N)(=O)=O)cc1 | 33% |  |
|  |  | 1.8 µM | 0.82 µM | COc1ccc(Oc2ccc([N+](=O)[O-])cc2C(=O)Nc2ccc(S(N)(=O)=O)cc2)cc1 | 79% | 1.3 µM |
|  |  | 0.25 µM | 0.46 µM | CC(C)NC1=NS(=O)(=O)c2cc(Cl)ccc2N1 | 75% | 0.8 µM |
|  |  | 8.1 µM | 1.12 µM | COc1ccc(Oc2ccc([N+](=O)[O-])cc2C(=O)Nc2ccc(C(C)=O)cc2)cc1 | 75% |  |
